Data taken from patent US20240156973A1, “OSTEOTROPIC COMPOSITIONS AND USES THEREOF” (Purdue Research Foundation, priority 2021, published 2024).

Legend:
[1] = test system: male C57BL/6 mice with surgically induced femoral fracture; assay: Von Frey testing of evoked pain behavior after femoral fracture; format: in vivo
Method: FIG. 15 is bar graphs for 12-week-old C57BL/6 male mice that underwent a surgically created fracture and received 3×/wk injection of targeted SRT1720 (SQ, 2, 6, and 20 mg/kg/dose) or vehicle control.
(§1) Weekly X-rays were used to examine healing progression. Prior to euthanasia, mice underwent behavioral testing to measure evoked pain behaviors, Upon euthanasia, ex vivo μCT imaging (FIGS. 14A-14C) and analysis was completed to assess fracture callus size and composition.

[2] = target: T1, Thrombopoietin Receptor (TPOR) (Homo sapiens, UniProt P40238); conditions: TPOR binding; cysteine-containing peptides in cyclic form; cited from earlier work
T1 sequence (P40238 26-491 limits assumed): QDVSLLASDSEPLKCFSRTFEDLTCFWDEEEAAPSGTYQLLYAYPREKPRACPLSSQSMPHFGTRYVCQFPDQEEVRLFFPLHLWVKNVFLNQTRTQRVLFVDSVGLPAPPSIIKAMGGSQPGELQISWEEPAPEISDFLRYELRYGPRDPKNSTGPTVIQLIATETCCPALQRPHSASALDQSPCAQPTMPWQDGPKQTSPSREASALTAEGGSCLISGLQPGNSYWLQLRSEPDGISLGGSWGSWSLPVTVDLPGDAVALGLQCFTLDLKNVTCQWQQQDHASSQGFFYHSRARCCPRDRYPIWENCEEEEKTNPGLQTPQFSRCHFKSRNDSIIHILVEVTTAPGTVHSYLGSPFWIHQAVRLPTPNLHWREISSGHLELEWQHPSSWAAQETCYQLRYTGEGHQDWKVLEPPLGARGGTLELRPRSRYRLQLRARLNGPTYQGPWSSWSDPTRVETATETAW

[3] = test system: female Swiss Webster mice with midshaft femur fractures; assay: Midshaft femur fracture healing, micro-CT of fracture callus; format: in vivo; conditions: three weeks
Method: Fracture healing was assessed using micro-CT (Scanco Medical Ag or PerkinElmer). […] Morphometric parameters were quantified in an ROI that included just the fracture callus. […] Statistical analysis was performed using a one-way analysis of variance (ANOVA) and a Dunnett's post-hoc analysis with significance reported at the P value of 0.05. All animal experiments were performed in accordance with protocols approved by Purdue University's Institutional Animal Care and Use Committee (IACUC).

[4] = test system: male C57BL/6 mice with surgically induced femoral fracture; assay: Surgically induced femoral fracture, X-ray and ex vivo µCT of callus; format: in vivo
Method: FIG. 14A are representative μCT images of femurs 3 weeks post-surgery from 12-week-old C57BL/6 male mice that underwent a surgically created fracture and received 3×/wk injection of targeted SRT1720 (SRT1720-Aspartic Acid Oligopeptide described herein; SQ, 6 mg/kg/dose) or vehicle control.
FIG. 14B is a bar graph showing μCT analysis of the mineralized callus volume (BV/TV) for each treatment group ([…], 2, 6, and 20 mg/kg/dose),
FIG. 14C is a bar graph showing μtCT analysis of the callus trabecular thickness (Tb.Th) within the callus region for each treatment group.
as §1

[5] = all doses (2, 6, 20 mg/kg, 3x/week), 3 weeks post-surgery
[6] = 6 mg/kg, 3x/week, 3 weeks, p<0.05

## N[C@@H](CCC(=O)O)C(=O)N[C@@H](CCC(=O)O)C(=O)N[C@@H](CCC(=O)O)C(=O)N[C@@H](CCC(=O)O)C(=O)N[C@@H](CCC(=O)O)C(=O)N[C@@H](CCC(=O)O)C(=O)N[C@@H](CCC(=O)O)C(=O)N[C@@H](CCC(=O)O)C(=O)N[C@@H](CCC(=O)O)C(=O)N[C@@H](CCC(=O)O)C(=O)N[C@@H](CSSCCOC(=O)N1CCN(Cc2csc3nc(-c4ccccc4NC(=O)c4cnc5ccccc5n4)cn23)CC1)C(=O)O [targeted SRT1720]
[1]; [5]
  paw withdrawal thresholds (evoked responses to tactile stimulus): improved mN forces

## TIKGFTLRQWLKSREHTS [AF12405]
[2]
  IC50: 50 nM

## IEGPTLRQWLAARA-K-β-Ala-IEGPTLRQWLAARA [AF13948]
[2]
  IC50: 0.5 nM

## GGCTLREWLHGGFCGG [AF12192]
[2]
  IC50: 200 nM

## LAIEGPTLRQWLHGNGPDT [AF12434]
[2]
  IC50: 20 nM

## GNADGPTLRQWLEGRRPKN [AF12359]
[2]
  IC50: 66 nM

## GGCADGPTLREWISFCGG [AF12193]
[2]
  IC50: 60 nM

## GRVBDQIMLSLGG [AF12191]
[2]
  IC50: 20000 nM

## Ile-Glu-Gly-Pro-Thr-Leu-Arg-Gln-Npa-Leu-Ala-Ala-Arg-Sar [TMP]
[3]; untargeted TMP daily 0.1, 1 and 10 nmol s.c.
  bone volume, dose-response shape: parabolic dosing window
[3]; untargeted TMP daily 3.3, 33 and 330 nmol/kg s.c.
  callus bone volume/total volume, dose-response shape: parabolic dosing window
[3]; untargeted TMP daily s.c.
  dose with maximum response on callus mineralization (bone volume): 1 nmol/day
  dose with maximum response on callus mineralization (bone volume/total volume): 33 nmol/kg

## IEGPTLRQWLAARA [AF12505]
[2]
  IC50: 2 nM

## O=C(Nc1ccccc1-c1cn2c(CN3CCNCC3)csc2n1)c1cnc2ccccc2n1 [SRT1720]
[1]; [6]
  paw withdrawal thresholds (evoked responses to tactile stimulus): more robust and significant improvement
[1]; [5]
  paw withdrawal thresholds (evoked responses to tactile stimulus): increased paw withdrawal thresholds
[4]; 6 mg/kg, 3x/week, 3 weeks
  bone healing: accelerated bone healing
[4]; [6]
  mineralized callus volume: significant increase in mineralized callus volume
[4]; all doses (2, 6, 20 mg/kg, 3x/week, 3 weeks)
  bone healing: improved healing
